In patent US9290476B2, “Methylene linked quinolinyl modulators of RORγt” (Janssen Pharmaceutica NV, priority 2012, dated 2016):
Counter-ions that a name gives are not always drawn.

Key:
[1] = target: human RORγt ligand binding domain (RORγt LBD) (Homo sapiens (Human), UniProt P51449); assay: RORγt ThermoFluor assay (thermal shift binding affinity); conditions: estimated from thermal shift
Description: This approach is applicable to a wide variety of systems, and rigorous in theoretical interpretation through quantitation of equilibrium binding constants (KD).
The shift in the melting point described as a ΔTm is proportional to the concentration and affinity of the ligand.
RORγt ThermoFluor® Assay Construct
Protein and compound solutions are dispensed into black 384-well polypropylene PCR microplates (Abgene) and overlayed with silicone oil (1 μL, Fluka, type DC 200) to prevent evaporation.
Bar-coded assay plates are robotically loaded onto a thermostatically controlled PCR-type thermal block and then heated at a typical ramp-rate of 1° C./min for all experiments. Fluorescence was measured by continuous illumination with UV light (Hamamatsu LC6) supplied via fiber optic and filtered through a band-pass filter (380-400 nm; >6 OD cutoff). Fluorescence emission of the entire 384-well plate was detected by measuring light intensity using a CCD camera (Sensys, Roper Scientific) filtered to detect 500±25 nm, resulting in simultaneous and independent readings of all 384 wells. Images were collected at each temperature, and the sum of the pixel intensity in a given area of the assay plate was recorded versus temperature. Reference wells contained RORγt without compounds, and the assay conditions were as follows: • 0.065 mg/mL RORγt • 60 μM 1,8-ANS • 100 mM Hepes, pH 7.0 • 10 mM NaCl • 2.5 mM GSH • 0.002% Tween-20
Project compounds were arranged in a pre-dosed mother plate (Greiner Bio-one) wherein compounds are serially diluted in 100% DMSO by 1:2 from a high concentration of 10 mM over 12 columns within a series (column 12 is a reference well containing DMSO, no compound). The compounds were robotically dispensed directly into assay plates (1×=46 nL) using a Hummingbird capillary liquid handling instrument (Digilab). Following compound dispense, protein and dye in buffer was added to achieve the final assay volume of 3 μL, followed by 1 μL of silicone oil.

human RORγt LBD = human RORγt LBD (Homo sapiens (Human), UniProt P51449); assay: RORγt reporter assay (GAL4-RORγt LBD luciferase in HEK293T cells); assay type: cell-based; conditions: for IC50: HEK293T cells, 24 hours compound treatment; for inhibition at 6 µM: HEK-293T, read-out: RORγt reporter Assay, % inhibition @ 6 μM, HEK293T cells, 6 μM
Text: A reporter assay was used to test functional activity of RORγt modulatory compounds on transcriptional activation driven by the RORγt LBD. Cells used in the assay were co-transfected with two constructs. The first construct, pBIND-RORγt LBD, contained the wild type human RORγt LBD fused to the DNA binding domain of the GAL4 protein. The second construct, pGL4.31 (Promega Cat no. C935A), contained multiple GAL4 responsive DNA elements upstream of firefly luciferase. […] The mutant construct was called pBIND-RORγt-AF2.
The pBIND vector contains the GAL4 DNA Binding Domain (GAL4 DBD) and the renilla luciferase gene under control of the SV40 promoter. Renilla luciferase expression serves as a control for transfection efficiency and cell viability.
The reporter assay was performed by transiently transfecting HEK293T cells with 5 ng of pBIND-RORγt LBD or pBIND-RORγt LBD-AF2 and 5 μg pGL4.31 (Promega Cat no. C935A) using Fugene 6 ([…] Cat no. E2691) at a 1:6 ratio of DNA: Fugene 6 in a T-75 flask in which cells were at least 80% confluent. Twenty four hours after bulk transfection, cells were plated into 96-well plates at 50,000 cells/well in phenol-red free DMEM containing 5% Lipid Reduced FCS and Pen/Strep. Six hours after plating, cells were treated with compounds for 24 hours. Media was removed and cells were lysed with 50 μL 1× Glo Lysis Buffer (Promega). Dual Glo Luciferase Reagent (50 μL/well) was then added and firefly luciferase luminescence was read on an Envision after a ten minute incubation. Finally, Stop and Glo reagent (50 μL/well) was added and renilla luciferase luminescence was read on an Envision after a ten minute incubation. To calculate the effect of compounds on RORγt activity, the ratio of firefly to renilla luciferase was determined and plotted against compound concentration. Agonist compounds increase RORγt-driven luciferase expression, and antagonist or inverse agonist compounds decrease luciferase expression.

Chain of human RORγt ligand binding domain (RORγt LBD) (P51449 other isoform, or with tags, fused parts or gaps): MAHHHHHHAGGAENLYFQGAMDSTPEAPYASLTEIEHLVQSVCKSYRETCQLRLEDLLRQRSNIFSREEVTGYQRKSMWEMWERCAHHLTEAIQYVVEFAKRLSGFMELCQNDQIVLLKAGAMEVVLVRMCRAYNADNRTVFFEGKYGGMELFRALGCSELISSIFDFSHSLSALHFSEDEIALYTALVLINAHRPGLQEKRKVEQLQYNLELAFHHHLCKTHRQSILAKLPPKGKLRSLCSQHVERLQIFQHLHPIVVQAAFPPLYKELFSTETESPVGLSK
Chain of human RORγt LBD (P51449 258-518): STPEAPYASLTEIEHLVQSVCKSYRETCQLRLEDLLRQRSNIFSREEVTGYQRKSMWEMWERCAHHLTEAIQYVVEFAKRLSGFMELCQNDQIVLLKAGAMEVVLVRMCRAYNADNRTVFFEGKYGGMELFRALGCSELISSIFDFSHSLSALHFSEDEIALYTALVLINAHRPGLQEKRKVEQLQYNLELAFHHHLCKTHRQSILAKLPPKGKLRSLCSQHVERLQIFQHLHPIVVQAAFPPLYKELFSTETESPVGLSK

Row | Kd [1] [µM] | IC50 (human RORγt LBD) [µM] | inhibition at 6 µM (human RORγt LBD) [%] | Compound
1 | 0.32 | > 6 | 71 | Cc1nc2ccc(C(O)(c3ccc(Cl)cc3)c3cncn3C)cc2c(C)c1Cc1ccccc1 (stereo not drawn) [Example 50, (3-Benzyl-2,4-dimethylquinolin-6-yl)(4-chlorophenyl)(1-methyl-1H-imidazol-5-yl)methanol.TFA]
2 | 0.091 | 0.56 | 74 | CCOc1nc2ccc(C(O)(c3ccc(Cl)cc3)c3cncn3C)cc2c(Cl)c1Cc1ccccc1 (stereo not drawn) [Example 14, (3-Benzyl-4-chloro-2-ethoxyquinolin-6-yl)(4-chlorophenyl)(1-methyl-1H-imidazol-5-yl)methanol.TFA]
3 | 0.0083 | 0.21 | 99 | Cn1cncc1C(O)(c1ccc(C(F)(F)F)nc1)c1ccc2nc(N3CCC3)c(Cc3ccc(-n4cccn4)cc3)c(Cl)c2c1 (stereo not drawn) [Example 68A, (3-(4-(1H-Pyrazol-1-yl)benzyl)-2-(azetidin-1-yl)-4-chloroquinolin-6-yl)(1-methyl-1H-imidazol-5-yl)(6-(trifluoromethyl)pyridin-3-yl)methanol]
4 |  |  | 97 | COc1nc2ccc(C(O)(c3ccc(C)nc3C)c3cnnn3C)cc2c(C#N)c1Cc1ccc(C(F)(F)F)cc1 (stereo not drawn) [Example 78A, 6-((2,6-Dimethylpyridin-3-yl)(hydroxy)(1-methyl-1H-1,2,3-triazol-5-yl)methyl)-2-methoxy-3-(4-(trifluoromethyl)benzyl)quinoline-4-carbonitrile]
5 | 0.015 | ~2 | 96 | COc1ccc(Cc2c(Cl)nc3ccc(C(O)(c4cccnc4)c4cccc(Cl)c4)cc3c2Cl)cc1 (stereo not drawn) [Example 6, (3-Chlorophenyl)-(2,4-dichloro-3-(4-methoxybenzyl)quinolin-6-yl)-(pyridin-3-yl)methanol.TFA]
6 | 2.3 | 0.85 | 95 | COc1nc2ccc(C(N)(c3ccc(C)nc3C)c3cnnn3C)cc2c(Cl)c1Cc1ccc(C(F)(F)F)cc1 (single isomer, unassigned) [Example 87B, (4-Chloro-2-methoxy-3-(4-(trifluoromethyl)benzyl)quinolin-6-yl)(2,6-dimethylpyridin-3-yl)(1-methyl-1H-1,2,3-triazol-5-yl)methanamine]
7 | 0.0077 | ~6 | 46 | OC(c1cccnc1)(c1cccc(Cl)c1)c1ccc2nc(Cl)c(Cc3cccc(Cl)c3)c(Cl)c2c1 (stereo not drawn) [Example 4, (3-Chlorophenyl)-(2,4-dichloro-3-(3-chlorobenzyl)quinolin-6-yl)-(pyridin-3-yl)methanol.TFA]
8 | 0.33 | 1.8 | 77 | Cn1cc(C(O)(c2ccc(Cl)cc2)c2ccc3nc(Cl)c(Cc4ccccc4)c(Cl)c3c2)cn1 (stereo not drawn) [Example 49, (3-Benzyl-2,4-dichloroquinolin-6-yl)(4-chlorophenyl)(1-methyl-1H-pyrazol-4-yl)methanol.TFA]
9 | 0.016 | ~7 | 77 | COc1ccc(Cc2c(Cl)nc3ccc(C(O)(c4ccc(Cl)cc4)c4cncn4C)cc3c2Cl)cc1 (stereo not drawn) [Example 12, (4-Chlorophenyl)(2,4-dichloro-3-(4-methoxybenzyl)quinolin-6-yl)(1-methyl-1H-imidazol-5-yl)methanol.TFA]
10 |  | > 6 | 34 | COc1ccc(Cc2cc3cc(C(O)(c4cncs4)c4cncn4C)ccc3nc2Cl)cc1 (stereo not drawn) [Example 52, (2-chloro-3-(4-methoxybenzyl)quinolin-6-yl)(1-methyl-1H-imidazol-5-yl)(thiazol-5-yl)methanol.TFA]
11 |  |  | 99 | COc1nc2ccc(C(O)(c3ccc(Cl)cc3)c3cncn3C)cc2c(Cl)c1Cc1ccc(-n2cncn2)cc1 (stereo not drawn) [Example 64A, (3-(4-(1H-1,2,4-Triazol-1-yl)benzyl)-4-chloro-2-methoxyquinolin-6-yl)(4-chlorophenyl)(1-methyl-1H-imidazol-5-yl)methanol]
12 |  |  | 101 | COc1nc2ccc(C(O)(c3ccc(Cl)cc3)c3cncn3C)cc2c(Cl)c1Cc1ccc(-n2cncn2)cc1 (single isomer, unassigned) [Example 64B, (3-(4-(1H-1,2,4-triazol-1-yl)benzyl)-4-chloro-2-methoxyquinolin-6-yl)(4-chlorophenyl)(1-methyl-1H-imidazol-5-yl)methanol]
13 |  |  | 94 | COc1nc2ccc(C(O)(c3ccc(C)nc3C)c3cnnn3C)cc2c(C#N)c1Cc1ccc(C(F)(F)F)cc1 (single isomer, unassigned) [Example 78B, 6-((2,6-Dimethylpyridin-3-yl)(hydroxy)(1-methyl-1H-1,2,3-triazol-5-yl)methyl)-2-methoxy-3-(4-(trifluoromethyl)benzyl)quinoline-4-carbonitrile]
14 |  | 0.11 | 97 | Cn1cncc1C(O)(c1ccc(Cl)cc1)c1ccc2nc(C#N)c(Cc3ccc(-n4cccn4)cc3)c(C#N)c2c1 (stereo not drawn) [Example 71A, 3-(4-(1H-Pyrazol-1-yl)benzyl)-6-((4-chlorophenyl)(hydroxy)(1-methyl-1H-imidazol-5-yl)methyl)quinoline-2,4-dicarbonitrile]
15 |  | 0.046 | 101 | COc1nc2ccc(C(O)(c3ccc(C(F)(F)F)nc3)c3cncn3C)cc2c(Cl)c1Cc1ccc(S(C)(=O)=O)cc1 (stereo not drawn) [Example 53, (4-Chloro-2-methoxy-3-(4-(methylsulfonyl)benzyl)quinolin-6-yl)(1-methyl-1H-imidazol-5-yl)(6-(trifluoromethyl)pyridin-3-yl)methanol]
16 |  | > 6 | 30 | OC(c1cccnc1)(c1cccc(Cl)c1)c1ccc2nc(Cl)c(Cc3ccc(F)cc3)c(Cl)c2c1 (stereo not drawn) [Example 3, (3-Chlorophenyl)-(2,4-dichloro-3-(4-fluorobenzyl)quinolin-6-yl)-(pyridin-3-yl)methanol.TFA]
17 |  | 0.05 | 70 | OC(c1cccnc1)(c1cccc(Cl)c1)c1ccc2nc(Cl)c(Cc3ccc(Cl)cc3)c(Cl)c2c1 (stereo not drawn) [Example 2, (3-Chlorophenyl)-(2,4-dichloro-3-(4-chlorobenzyl)quinolin-6-yl)-(pyridin-3-yl)methanol.TFA]
18 |  |  | 103 | COc1ccc(C(O)(c2ccc3nc(Cl)c(Cc4ccc(-n5cccn5)cc4)c(Cl)c3c2)c2cncn2C)cn1 (stereo not drawn) [Example 21, (3-(4-(1H-Pyrazol-1-yl)benzyl)-2,4-dichloroquinolin-6-yl)(6-methoxypyridin-3-yl)(1-methyl-1H-imidazol-5-yl)methanol.TFA]
19 |  |  | 103 | COc1nc2ccc(C(O)(c3ccc(C)nc3C)c3cnnn3C)cc2c(Cl)c1Cc1ccc(C(F)(F)F)cc1 (stereo not drawn) [Example 77A, (4-Chloro-2-methoxy-3-(4-(trifluoromethyl)benzyl)quinolin-6-yl)(2,6-dimethylpyridin-3-yl)(1-methyl-1H-1,2,3-triazol-5-yl)methanol]
20 |  |  | 100 | CCc1nc2ccc(C(O)(c3cnnn3C)C3CN(S(C)(=O)=O)C3)cc2c(Cl)c1Cc1ccc(C(F)(F)F)cc1 (stereo not drawn) [Example 91A, (4-Chloro-2-ethyl-3-(4-(trifluoromethyl)benzyl)quinolin-6-yl)(1-methyl-1H-1,2,3-triazol-5-yl)(1-(methylsulfonyl)azetidin-3-yl)methanol]
21 |  |  | 103 | COc1nc2ccc(C(O)(c3cnnn3C)c3cnc(C)n3C)cc2c(Cl)c1Cc1ccc(C(F)(F)F)cc1 (stereo not drawn) [Example 80A, (4-Chloro-2-methoxy-3-(4-(trifluoromethyl)benzyl)quinolin-6-yl)(1,2-dimethyl-1H-imidazol-5-yl)(1-methyl-1H-1,2,3-triazol-5-yl)methanol]
